Results as given in PubChem BioAssay AID256 (DTP/NCI, 2004).
Inconclusive results and toxic doses are left out. How the source made its calls: active means survival T/C of 150% or more; inactive means T/C below 125% in these data.

Tested on: CD2F1 mice, L1210 leukemia ip, survival T/C
Assay: NCI In Vivo Anticancer Drug Screen. Data for tumor model L1210 Leukemia (intraperitoneal) in CD2F1 (CDF1) mice
Details: higher = longer survival
Outline: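 Implant tumor; dose compound or vehicle; measure endpoint in both groups; report treated divided by control.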

[1] = endpoint: mean survival time, dose: 100.0 mg/kg/injection, schedule: Q04DX003 (ip), vehicle: saline
[2] = endpoint: mean survival time, dose: 200.0 mg/kg/injection, schedule: Q04DX003 (ip), vehicle: saline
[3] = endpoint: mean survival time, dose: 400.0 mg/kg/injection, schedule: Q04DX003 (ip), vehicle: saline
[4] = endpoint: mean survival time, dose: 100.0 mg/kg/injection, schedule: Q04DX003 (ip), vehicle: saline with Tween-80
[5] = endpoint: mean survival time, dose: 200.0 mg/kg/injection, schedule: Q04DX003 (ip), vehicle: saline with Tween-80
[6] = endpoint: mean survival time, dose: 25.0 mg/kg/injection, schedule: Q01DX009 (ip), vehicle: saline with Tween-80
[7] = endpoint: mean survival time, dose: 50.0 mg/kg/injection, schedule: Q01DX009 (ip), vehicle: saline with Tween-80
[8] = endpoint: mean survival time, dose: 100.0 mg/kg/injection, schedule: Q01DX009 (ip), vehicle: saline with Tween-80
[9] = endpoint: mean survival time, dose: 100.0 mg/kg/injection, schedule: Q04DX002 (ip), vehicle: saline with Tween-80
[10] = endpoint: mean survival time, dose: 75.0 mg/kg/injection, schedule: Q01DX001 (ip), vehicle: other
[11] = endpoint: mean survival time, dose: 150.0 mg/kg/injection, schedule: Q01DX001 (ip), vehicle: other
[12] = endpoint: mean survival time, dose: 300.0 mg/kg/injection, schedule: Q01DX001 (ip), vehicle: other
[13] = endpoint: mean survival time, dose: 400.0 mg/kg/injection, schedule: Q04DX003 (ip), vehicle: saline with Tween-80
[14] = endpoint: mean survival time, dose: 200.0 mg/kg/injection, schedule: Q01DX009 (ip), vehicle: saline with Tween-80
[15] = endpoint: mean survival time, dose: 400.0 mg/kg/injection, schedule: Q01DX009 (ip), vehicle: saline with Tween-80
[16] = endpoint: mean survival time, dose: 100.0 mg/kg/injection, schedule: Q01DX001 (ip), vehicle: saline
[17] = endpoint: mean survival time, dose: 200.0 mg/kg/injection, schedule: Q01DX001 (ip), vehicle: saline
[18] = endpoint: mean survival time, dose: 400.0 mg/kg/injection, schedule: Q01DX001 (ip), vehicle: saline

Measured: T/C

c1ccc(-c2cc3cc4ccccc4cn3c2)cc1
inactive: endpoint: median survival time, dose: 50.0 mg/kg/injection, schedule: Q01DX009 (ip), vehicle: saline with Tween-80 104 % of control | endpoint: median survival time, dose: 100.0 mg/kg/injection, schedule: Q01DX009 (ip), vehicle: saline with Tween-80 100 % of control | endpoint: median survival time, dose: 200.0 mg/kg/injection, schedule: Q01DX009 (ip), vehicle: saline with Tween-80 108 % of control | endpoint: median survival time, dose: 400.0 mg/kg/injection, schedule: Q01DX009 (ip), vehicle: saline with Tween-80 113 % of control | endpoint: median survival time, dose: 800.0 mg/kg/injection, schedule: Q01DX009 (ip), vehicle: saline with Tween-80 110 % of control

c1ccc(-c2nnnn2-c2ccccc2)cc1
inactive: [1] 101 % of control | [2] 98 % of control | [3] 104 % of control

CCCN(CCC)CC(=O)Nc1c(Cl)cccc1Cl
inactive: endpoint: mean survival time, dose: 50.0 mg/kg/injection, schedule: Q01DX009 (ip), vehicle: saline sonified 101 % of control | endpoint: mean survival time, dose: 100.0 mg/kg/injection, schedule: Q01DX009 (ip), vehicle: saline sonified 96 % of control | [4] 105 % of control | [5] 105 % of control

COc1cc2c(cc1OC)C(CC(C)C)=[N+](C)CC2
inactive: [6] 103 % of control | [7] 98 % of control | [8] 109 % of control | [9] 92 % of control

[Cl][Co]([Cl])[Cl].[NH-]CCCN.[NH-]CCC[NH-]
inactive: endpoint: mean survival time, dose: 100.0 mg/kg/injection, schedule: Q01DX009 (ip), vehicle: Klucel (hydroxypropylcellulose) (HPC) 113 % of control | [1] 101 % of control | endpoint: mean survival time, dose: 200.0 mg/kg/injection, schedule: Q01DX009 (ip), vehicle: Klucel (hydroxypropylcellulose) (HPC) 113 % of control | [2] 104 % of control | endpoint: mean survival time, dose: 400.0 mg/kg/injection, schedule: Q01DX009 (ip), vehicle: Klucel (hydroxypropylcellulose) (HPC) 104 % of control | [3] 104 % of control

CC(=O)OCC1OC(OC(C)=O)C(NC(=O)N(CCSCCCl)N=O)C(OC(C)=O)C1OC(C)=O (stereo unspecified)
inactive: endpoint: mean survival time, dose: 0.78 mg/kg/injection, schedule: Q01DX001 (ip), vehicle: water 96 % of control | endpoint: mean survival time, dose: 1.56 mg/kg/injection, schedule: Q01DX001 (ip), vehicle: water 102 % of control | endpoint: mean survival time, dose: 3.12 mg/kg/injection, schedule: Q01DX001 (ip), vehicle: water 106 % of control | endpoint: mean survival time, dose: 6.25 mg/kg/injection, schedule: Q01DX001 (ip), vehicle: distilled water + Tween-80 106 % of control | endpoint: mean survival time, dose: 6.25 mg/kg/injection, schedule: Q01DX001 (ip), vehicle: water 106 % of control

N/C(=N\OCc1ccccc1)c1ncn(C2CCCC2)c1N
inactive: [10] 102 % of control | [11] 106 % of control | [12] 103 % of control

CCCCCCCCCCCC[n+]1cccc2ccccc21
inactive: endpoint: mean survival time, dose: 0.35 mg/kg/injection, schedule: Q01DX009 (ip), vehicle: saline 106 % of control | endpoint: mean survival time, dose: 0.7 mg/kg/injection, schedule: Q01DX009 (ip), vehicle: saline 111 % of control | endpoint: mean survival time, dose: 1.4 mg/kg/injection, schedule: Q01DX009 (ip), vehicle: saline 117 % of control

O=C(Cc1ccccc1)c1ccccc1
inactive: endpoint: mean survival time, dose: 100.0 mg/kg/injection, schedule: Q01DX001 (ip), vehicle: saline with Tween-80 102 % of control | endpoint: mean survival time, dose: 200.0 mg/kg/injection, schedule: Q01DX001 (ip), vehicle: saline with Tween-80 102 % of control | endpoint: mean survival time, dose: 400.0 mg/kg/injection, schedule: Q01DX001 (ip), vehicle: saline with Tween-80 94 % of control

C(#CCNC1CCCCC1)CNC1CCCCC1
inactive: endpoint: mean survival time, dose: 25.0 mg/kg/injection, schedule: Q04DX002 (ip), vehicle: saline with Tween-80 94 % of control | endpoint: mean survival time, dose: 50.0 mg/kg/injection, schedule: Q04DX002 (ip), vehicle: saline with Tween-80 98 % of control

O=C(CCCl)OCCCl
inactive: [4] 102 % of control | [5] 92 % of control

COc1cccc(/C(C)=N\NC(=O)c2ccccc2)c1
inactive: [6] 98 % of control | [7] 95 % of control | [8] 88 % of control | [4] 96 % of control

COC(=N)C/C=C/CC(=N)OC
inactive: [4] 98 % of control | [5] 95 % of control | [13] 98 % of control

COC(=O)C(=[N+]=[N-])C(=O)OC
inactive: [8] 93 % of control | [4] 101 % of control | [14] 93 % of control | [5] 101 % of control | [15] 91 % of control | [13] 98 % of control

CCOC(=S)SCCCC(C)CC (stereo unspecified)
inactive: [16] 100 % of control | [17] 102 % of control | [18] 102 % of control

COC1CCC(/C(C#N)=C/C2CCC(OC)C(OC)C2)CC1 (stereo unspecified)
inactive: [9] 94 % of control | endpoint: mean survival time, dose: 200.0 mg/kg/injection, schedule: Q04DX002 (ip), vehicle: saline with Tween-80 94 % of control | endpoint: mean survival time, dose: 400.0 mg/kg/injection, schedule: Q04DX002 (ip), vehicle: saline with Tween-80 94 % of control

O=P1(Oc2ccccc2)NCC(Br)CO1 (stereo unspecified)
inactive: endpoint: mean survival time, dose: 18.8 mg/kg/injection, schedule: Q01DX001 (ip), vehicle: other 98 % of control | endpoint: mean survival time, dose: 31.25 mg/kg/injection, schedule: Q01DX001 (ip), vehicle: other 104 % of control | endpoint: mean survival time, dose: 37.5 mg/kg/injection, schedule: Q01DX001 (ip), vehicle: other 98 % of control | endpoint: mean survival time, dose: 62.5 mg/kg/injection, schedule: Q01DX001 (ip), vehicle: other 107 % of control | [10] 105 % of control | endpoint: mean survival time, dose: 125.0 mg/kg/injection, schedule: Q01DX001 (ip), vehicle: other 94 % of control | [11] 113 % of control | endpoint: mean survival time, dose: 250.0 mg/kg/injection, schedule: Q01DX001 (ip), vehicle: other 100 % of control | [12] 107 % of control | endpoint: mean survival time, dose: 500.0 mg/kg/injection, schedule: Q01DX001 (ip), vehicle: other 100 % of control

O=P(OCCCl)(OCCCl)C(Cl)(Cl)Cl
inactive: [16] 103 % of control | [17] 102 % of control | [18] 103 % of control

CC(C)c1ccc(C2CCCCC2O)cc1 (stereo unspecified)
inactive: [8] 89 % of control | [4] 105 % of control | [14] 92 % of control | [5] 91 % of control | [13] 94 % of control

CN(C)CCC(=O)c1ccccc1
inactive: endpoint: mean survival time, dose: 25.0 mg/kg/injection, schedule: Q01DX009 (ip), vehicle: saline 106 % of control | endpoint: mean survival time, dose: 50.0 mg/kg/injection, schedule: Q01DX009 (ip), vehicle: saline 95 % of control | endpoint: mean survival time, dose: 100.0 mg/kg/injection, schedule: Q01DX009 (ip), vehicle: saline 106 % of control

CC(OC(=O)c1ccccc1)c1ccccc1 (stereo unspecified)
inactive: [8] 95 % of control | [4] 96 % of control | [14] 105 % of control | [5] 105 % of control | [15] 112 % of control | [13] 94 % of control

Cc1ccc2nc(-c3ccc4nc(-c5ccc(N)cc5)sc4c3)sc2c1S(=O)(=O)O
inactive: [1] 109 % of control | [2] 107 % of control | [3] 112 % of control

CC(C)C(=O)Nc1nc(OCCc2ccc([N+](=O)[O-])cc2)c2ncn(C3CC(O)C(CO)O3)c2n1 (stereo unspecified)
inactive: endpoint: median survival time, dose: 12.5 mg/kg/injection, schedule: Q01DX005 (ip), vehicle: saline with Tween-80 101 % of control | endpoint: median survival time, dose: 25.0 mg/kg/injection, schedule: Q01DX005 (ip), vehicle: saline with Tween-80 97 % of control | endpoint: median survival time, dose: 50.0 mg/kg/injection, schedule: Q01DX005 (ip), vehicle: saline with Tween-80 97 % of control | endpoint: median survival time, dose: 100.0 mg/kg/injection, schedule: Q01DX005 (ip), vehicle: saline with Tween-80 95 % of control | endpoint: median survival time, dose: 200.0 mg/kg/injection, schedule: Q01DX005 (ip), vehicle: saline with Tween-80 86 % of control

COc1cc2ccc3c4cc(OC)c(OC)cc4c[n+](C)c3c2cc1O
inactive: endpoint: mean survival time, dose: 75.0 mg/kg/injection, schedule: Q04DX003 (ip), vehicle: Klucel (hydroxypropylcellulose) (HPC) 113 % of control | endpoint: mean survival time, dose: 150.0 mg/kg/injection, schedule: Q04DX003 (ip), vehicle: Klucel (hydroxypropylcellulose) (HPC) 113 % of control | endpoint: mean survival time, dose: 300.0 mg/kg/injection, schedule: Q04DX003 (ip), vehicle: Klucel (hydroxypropylcellulose) (HPC) 119 % of control

CCCCCC(O)C(C)C (stereo unspecified)
inactive: endpoint: mean survival time, dose: 75.0 mg/kg/injection, schedule: Q01DX001 (ip), vehicle: saline 98 % of control | endpoint: mean survival time, dose: 150.0 mg/kg/injection, schedule: Q01DX001 (ip), vehicle: saline 91 % of control

OC(CC(CC(O)(C(F)(F)F)C(F)(F)F)=NNc1ccccc1)(C(F)(F)F)C(F)(F)F
inactive: [6] 92 % of control | [7] 93 % of control
